What is called melting point is the temperature, or range, at which the solid turns liquid.

In one series the test system is Puccinia triticina. In words: Wheat Brown Rust (PUCCRT) fungicidal activity. The class given is in vivo. As to conditions: for pest or weed control at 100 ppm: High Volume application; for pest or weed control at 121.5 g/ha: Low Volume application, 121.5 g/H. Put shortly: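 Yuma wheat seedlings at first-leaf stage sprayed to run-off with acetone/water (Triton X-100) solutions, inoculated with P. triticina spores before or after treatment. Overnight dark dew at 22° C, then greenhouse at 24° C; percent disease control from severity versus untreated plants.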

A further series relates to Zymoseptoria tritici. In words: Leaf Blotch of Wheat (SEPTTR) fungicidal activity. The class given is in vivo. As to conditions: for pest or weed control at 121.5 g/ha: Low Volume application, 121.5 g/H. Put shortly:
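Wheat seedlings (Yuma, first leaf emerged) were sprayed to run-off with compound in acetone/water containing Triton X-100 and inoculated with Z. tritici spores before or after treatment. Percent disease control comes from 0–100% severity on treated versus untreated plants.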

Setting [1] is: 24 h, 1 day protectant, read-out: PUCCRT disease control, 1DP (1 Day Protectant).
Setting [2] is: 72 h, 3 day curative, read-out: PUCCRT disease control, 3DC (3 Day Curative).
Where [3] appears, read: 24 h, High Volume application, 100 ppm, wheat leaf blotch, 1 day protectant, read-out: SEPTTR disease control, 1DP (1 Day Protectant).
Setting [4] is: 72 h, High Volume application, 100 ppm, wheat leaf blotch, 3 day curative, read-out: SEPTTR disease control, 3DC (3 Day Curative).

Where two headings read alike, the source gives them in different places.

As for `COc1ccnc(C(=O)N[C@H]2COCCC[C@@H](CCC(C)C)[C@H](C)OC2=O)c1OC(C)=O` [Compound 39], the melting point was 57 to 62 °C. The pest or weed control at 100 ppm in the series on Puccinia triticina (setting [1]) was greater than 80%. In addition, the pest or weed control at 100 ppm with Puccinia triticina (setting [2]) was greater than 80%. Also, the pest or weed control at 100 ppm in the series with Zymoseptoria tritici (setting [3]) was greater than 80%. In addition, the pest or weed control at 100 ppm in the series on Zymoseptoria tritici (setting [4]) is greater than 80%.
The compound `COc1ccnc(C(=O)N[C@H]2CCOC[C@H](Cc3ccccc3)[C@@H](OCC(C)C)[C@H](C)OC2=O)c1O` [Compound 95] came in with a melting point of 197 to 198 °C. Moreover, the pest or weed control at 100 ppm in the series on Puccinia triticina (setting [1]) is greater than 80%. Further, the pest or weed control at 100 ppm in the series with Puccinia triticina (setting [2]) was less than 80%. The pest or weed control at 100 ppm with Zymoseptoria tritici (setting [3]) is greater than 80%. Also, the pest or weed control at 100 ppm in the series on Zymoseptoria tritici (setting [4]) was less than 80%.
On to `CCC[C@H]1CCCC[C@H](NC(=O)c2nccc(OC)c2OCOC(C)=O)C(=O)O[C@@H](C)[C@@H]1OCC(C)C` [compound 30, ((2-(((3S,8S,9R,10S)-9-isobutoxy-10-methyl-2-oxo-8-propyloxecan-3-yl)carbamoyl)-4-methoxypyridin-3-yl)oxy)methyl acetate], for which the pest or weed control at 121.5 g/ha in the series on Puccinia triticina (setting [1]) was greater than 80%; in the series with Puccinia triticina (setting [2]) it was less than 80%; with Zymoseptoria tritici (24 h, wheat leaf blotch, 1 day protectant, read-out: SEPTTR disease control, 1DP (1 Day Protectant)) it was less than 80%; with Zymoseptoria tritici (72 h, wheat leaf blotch, 3 day curative, read-out: SEPTTR disease control, 3DC (3 Day Curative)), less than 80%.
`CCC[C@H]1CCCC[C@H](NC(=O)c2nccc(OC)c2O)C(=O)O[C@@H](C)[C@@H]1OCC(C)C` [compound 105, 3-hydroxy-N-((3S,8S,9R,10S)-9-isobutoxy-10-methyl-2-oxo-8-propyloxecan-3-yl)-4-methoxypicolinamide]: the pest or weed control at 100 ppm with Puccinia triticina (setting [1]) is less than 80%; in the series on Puccinia triticina (setting [2]) it was less than 80%; in the series on Zymoseptoria tritici (24 h, read-out: SEPTTR disease control, 1DP (1 Day Protectant)), less than 80%; in the series on Zymoseptoria tritici (72 h, read-out: SEPTTR disease control, 3DC (3 Day Curative)), less than 80%.

The record behind these values is patent US20180002319A1, “MACROCYCLIC PICOLINAMIDE COMPOUNDS WITH FUNGICIDAL ACTIVITY” (DOW AGROSCIENCES LLC, priority 2014, published 2018).
